Here are results for seven compounds from ChEMBL document CHEMBL6078661, “Alkaloids from Mackinlaya species and synthetic mackinazolinone derivatives: An overview” (Bioorg Med Chem, 2025).

pIC50: −log10 of the molar value.

For orientation: pIC50 means the negative decadic logarithm of the IC50, by convention in mol/L.

One test relates to Naegleria fowleri. As to the kind of experiment: Antiparasitic activity against Naegleria fowleri NF69 (ATCC 30215) assessed as parasitic growth inhibition at 10 uM incubated for 48 hrs by CellTiter-Glo based BioTek microplate reader analysis relative to control. The test is classed as functional. More on the design: scale not given: the % may be the effect or the level left. Background: In ATP-based viability assays light output follows the ATP content of the culture.

The target of a further test is Acetylcholinesterase (Homo sapiens, UniProt P22303). As to the kind of experiment: Competitive inhibition of AChE (unknown origin).
Chain of Acetylcholinesterase (P22303 whole entry): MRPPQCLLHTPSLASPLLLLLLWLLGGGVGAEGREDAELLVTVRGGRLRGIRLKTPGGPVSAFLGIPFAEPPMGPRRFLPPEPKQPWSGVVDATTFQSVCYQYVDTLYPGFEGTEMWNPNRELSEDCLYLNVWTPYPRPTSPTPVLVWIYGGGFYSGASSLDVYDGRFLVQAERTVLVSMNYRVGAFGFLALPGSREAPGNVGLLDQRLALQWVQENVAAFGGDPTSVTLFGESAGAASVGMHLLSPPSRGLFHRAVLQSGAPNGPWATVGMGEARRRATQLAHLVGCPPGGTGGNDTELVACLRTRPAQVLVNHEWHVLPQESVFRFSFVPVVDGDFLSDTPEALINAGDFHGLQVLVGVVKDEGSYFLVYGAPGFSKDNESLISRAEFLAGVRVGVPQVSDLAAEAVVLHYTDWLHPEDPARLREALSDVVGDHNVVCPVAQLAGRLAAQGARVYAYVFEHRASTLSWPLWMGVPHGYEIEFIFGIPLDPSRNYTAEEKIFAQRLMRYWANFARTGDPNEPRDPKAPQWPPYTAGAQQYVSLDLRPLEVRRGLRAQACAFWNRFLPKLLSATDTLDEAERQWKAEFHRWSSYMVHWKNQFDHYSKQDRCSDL
In test [1] the test system is HeLa. Description: Antiproliferative activity against human HeLa cells assessed as inhibition of cell proliferation. The test is classed as functional, cell-based.
Another test relates to Staphylococcus aureus. Description: Antibacterial activity against Staphylococcus aureus assessed as diameter of inhibition zone. In kind it is functional.
The next test has as its system Pseudomonas aeruginosa. Description: Antibacterial activity against Pseudomonas aeruginosa assessed as diameter of inhibition zone. The test is classed as functional.
Another test concerns Bacillus cereus. Description: Antibacterial activity against Bacillus cereus assessed as diameter of inhibition zone. In kind it is functional.
Another test deals with Escherichia coli. As to the kind of experiment: Antibacterial activity against Escherichia coli assessed as diameter of inhibition zone. In kind it is functional.
In test [2] the test system is HeLa. Description: Cytotoxicity against human HeLa cells assessed as reduction in cell viability. The test is classed as functional, cell-based.
In a further test the test system is A549. As to the kind of experiment: Cytotoxicity against human A549 cells assessed as reduction in cell viability. In kind it is functional.
Another test deals with MCF7. Description: Cytotoxicity against human MCF7 cells assessed as reduction in cell viability. In kind it is functional, cell-based.

As to `CN1CCC[C@@H]2c3nc4ccc(Cl)cc4c(=O)n3CC[C@H]21`, in the test with Naegleria fowleri, the Activity was determined as 98.1%.
Turning to `CN1CCC[C@@H]2c3nc4cc(C(F)(F)F)ccc4c(=O)n3CC[C@H]21`, the Activity in the test with Naegleria fowleri came out at 96.8%.
As to `CN1CCC[C@H]2c3nc4ccc(C#N)cc4c(=O)n3CC[C@H]21`, the Activity in the test with Naegleria fowleri was 98.2%.
At Acetylcholinesterase, `O=c1c2nc(-c3ccc(C(F)(F)F)cc3)sc2nc2n1CCCC2` showed a pIC50 of 5.78.
For the compound `COc1ccc(/C=C2\CCCn3c2nc2oc(-c4ccc(F)cc4)cc2c3=O)cc1OC`, in the test with HeLa [1], the pIC50 is 5.07.
`O=C1c2ccccc2NC2=C(/C=N/c3ccccc3O)CCCN12`: the “diameter of the inhibition zone (DIZ)” value is 18 mm in the test with Staphylococcus aureus, 18 mm in the test on Pseudomonas aeruginosa, 18 mm in the test on Bacillus cereus and 6 mm with Escherichia coli.
On to `O=c1c2nc(-c3cc(Cl)cc(Cl)c3)oc2nc2n1CCCC2`, for which the pIC50 was 5.51 in the test on HeLa [2] and 5.64 in the test on MCF7. The Activity in the test on A549 was determined as 0.75 µM.
